The values that follow are results of earlier work, collected in patent US9233901B2, “Synthetic navel orangeworm pheromone composition and methods relating to production of same” (Suterra LLC, priority 2008, dated 2016).

The subject of this data set is major pheromone binding protein (AtraPBP). The settings on record: shown in other studies (Leal et al. 2005).

As for `CC/C=C\C=C/CCCCCCCCCC=O` [HDAL, (Z, Z)-11,13-hexadecadienal], the “affinity for binding to a major pheromone binding protein (AtraPBP)” value is “high affinity”.
